Data on ten molecules can be found in patent US12552846B2, “Modified BCL9 mimetic peptides” (Sapience Therapeutics, Inc., priority 2019, dated 2026).

For the series, the system named is HL60 promyelocytic leukemia cells. Kind of series: Cytotoxicity assay in HL60 cells (Annexin V FITC / PI flow cytometry). Type of series: cell-based. To be noted: 48 hours; for EC50: 0-80 μM, % Viability (Annexin V low, PI low). As for the experimental part: We examined the cytotoxicity of peptides BCL-26 and BCL-27 using an assay in HL60 promyelocytic leukemia cells. HL60 PML suspension cells were set at a density of 3.5×10^3 cells/well in 150 μL of RPMI+1.5% fetal bovine serum (FBS) in a 96 well dish. BCL-26 or BCL-27, reconstituted at a concentration of 10 mg/mL in 20 mM His, pH 7.5, was added to each well at a volume of 50 μL to a final concentration range of 0-80 μM. Cells were incubated with peptide for 48 hours at 37° C. Cell viability was quantified by flow cytometry using abcam Annexin V FITC apoptosis detection kit. Briefly, cells were washed with PBS and resuspended in 1× assay buffer containing Annexin V FITC and propidium iodide (PI). Annexin V detects apoptotic cells, and PI stains dead cells. After staining, apoptotic cells show green fluorescence, dead cells show red and green fluorescence, and live cells show little or no fluorescence. Cells were selected for analysis based on forward scatter (FSC) vs. side scatter (SSC), and analyzed by BD Accuri C6 Plus flow cytometer to detect Annexin V-FITC binding (Ex=488 nm; Em=530 nm) using FITC signal detector and PI staining by the phycoerythrnn emission signal detector. Percentage of Annexin V^low and PI^low were quantified and presented as % Viability.
We examined the cytotoxicity of additional retro inverso and mixed chirality BCL9 mimetic peptides in HL60 cells using the assay described above.
(In general: A flow cytometer gives signals particle by particle.)

Square brackets hold non-standard residues; d marks the D form. Peptide text beside a SMILES is read from it. * marks the point of attachment. d2Nal = N[C@H](Cc1ccc2ccccc2c1)C(=O)O; Octanoyl = CCCCCCCC(=O)*

With `CC(C)C[C@@H](NC(=O)[C@@H](CCC(N)=O)NC(=O)[C@@H](C)NC(=O)[C@@H](CC(C)C)NC(=O)[C@@H](CCCNC(=N)N)NC(=O)[C@@H](C)NC(=O)[C@@H](CC(C)C)NC(=O)[C@@H](CCC(N)=O)NC(=O)[C@@H](CCCNC(=N)N)NC(=O)[C@@H](C)NC(=O)[C@@H](CC(C)C)NC(=O)[C@@H](Cc1c[nH]c2ccccc12)NC(=O)[C@H](N)Cc1c[nH]c2ccccc12)C(=O)N[C@H](C)C(=O)O` [BCL-12] (H-[dW][dW][dL][dA][dR][dQ][dL][dA][dR][dL][dA][dQ][dL][dA]-OH; N-terminus and C-terminus assumed), the cytotoxic activity entry was “no cytotoxic activity” and the EC50 – broadly, the concentration giving half of the maximal effect – is above 80000 nM.

The molecule `CC(C)C[C@@H](NC(=O)[C@H](N)Cc1c[nH]c2ccccc12)C(=O)N[C@H](CC(C)C)C(=O)N[C@H](C)C(=O)N[C@H](CCCNC(=N)N)C(=O)N[C@H](CCC(N)=O)C(=O)N[C@H](CC(C)C)C(=O)N[C@H](C)C(=O)N[C@H](CCCNC(=N)N)C(=O)N[C@H](CC(C)C)C(=O)N[C@H](C)C(=O)N[C@H](CCC(N)=O)C(=O)N[C@H](CC(C)C)C(=O)N[C@H](C)C(=O)N[C@H](CCCCN)C(=O)N[C@H](CC(C)C)C(=O)N[C@@H](C(=O)N1CCC[C@@H]1C(=O)N[C@@H](C(=O)O)C(C)C)[C@H](C)O` [BCL-82] (H-[dW][dL][dL][dA][dR][dQ][dL][dA][dR][dL][dA][dQ][dL][dA][dK][dL][dT][dP][dV]-OH; N-terminus and C-terminus assumed) yielded an EC50 of 2000 to 10000 nM.

Molecule `CC(C)C[C@@H](NC(=O)[C@@H](Cc1c[nH]c2ccccc12)NC(=O)[C@@H](N)Cc1ccccc1)C(=O)N[C@H](C)C(=O)N[C@H](CCCNC(=N)N)C(=O)N[C@H](CCC(N)=O)C(=O)N[C@H](CC(C)C)C(=O)N[C@H](C)C(=O)N[C@H](CCCNC(=N)N)C(=O)N[C@H](CC(C)C)C(=O)N[C@H](C)C(=O)N[C@H](CCC(N)=O)C(=O)N[C@H](CC(C)C)C(=O)N[C@H](C)C(=O)N[C@H](CCCCN)C(=O)N[C@H](CC(C)C)C(=O)N[C@@H](C(=O)N1CCC[C@@H]1C(=O)N[C@@H](C(=O)O)C(C)C)[C@H](C)O` [BCL-99] (H-F[dW][dL][dA][dR][dQ][dL][dA][dR][dL][dA][dQ][dL][dA][dK][dL][dT][dP][dV]-OH; N-terminus and C-terminus assumed) returned an EC50 of 2000 to 10000 nM.

As to `CC(C)C[C@@H](NC(=O)[C@@H](Cc1c[nH]c2ccccc12)NC(=O)[C@H](N)Cc1ccc2ccccc2c1)C(=O)N[C@H](C)C(=O)N[C@H](CCCNC(=N)N)C(=O)N[C@H](CCC(N)=O)C(=O)N[C@H](CC(C)C)C(=O)N[C@H](C)C(=O)N[C@H](CCCNC(=N)N)C(=O)N[C@H](CC(C)C)C(=O)N[C@H](C)C(=O)N[C@H](CCC(N)=O)C(=O)N[C@H](CC(C)C)C(=O)N[C@H](C)C(=O)N[C@H](CCCCN)C(=O)N[C@H](CC(C)C)C(=O)N[C@@H](C(=O)N1CCC[C@@H]1C(=O)N[C@@H](C(=O)O)C(C)C)[C@H](C)O` [BCL-78] (H-[d2Nal][dW][dL][dA][dR][dQ][dL][dA][dR][dL][dA][dQ][dL][dA][dK][dL][dT][dP][dV]-OH; N-terminus and C-terminus assumed), the EC50 was below 2000 nM.

For `CC(C)C[C@@H](NC(=O)[C@@H](C)NC(=O)[C@@H](C)NC(=O)[C@@H](CC(C)C)NC(=O)[C@@H](CCC(N)=O)NC(=O)[C@@H](C)NC(=O)[C@@H](C)NC(=O)[C@@H](CC(C)C)NC(=O)[C@@H](Cc1c[nH]c2ccccc12)NC(=O)[C@@H](Cc1c[nH]c2ccccc12)NC(=O)CNC(=O)[C@@H](CCCNC(=N)N)NC(=O)CNC(=O)[C@@H](CC(=O)O)NC(=O)[C@@H](CO)NC(=O)[C@H]1CCCN1)C(=O)N[C@H](C)C(=O)N[C@H](CCC(N)=O)C(=O)N[C@H](CC(C)C)C(=O)N[C@H](C)C(=O)N[C@H](CCCCN)C(=O)N[C@H](CC(C)C)C(=O)N[C@@H](C(=O)N1CCC[C@@H]1C(=O)N[C@@H](C(=O)O)C(C)C)[C@H](C)O` [BCL-134, reference compound] (H-[dP][dS][dD]G[dR]G[dW][dW][dL][dA][dA][dQ][dL][dA][dA][dL][dA][dQ][dL][dA][dK][dL][dT][dP][dV]-OH; N-terminus and C-terminus assumed), the cytotoxic activity entry was “Lack of cytotoxic activity” and the EC50 is above 80000 nM.

Regarding `CCCCCCCC(=O)N[C@H](CC(C)C)C(=O)N[C@@H](C(=O)N[C@H](CCCNC(=N)N)C(=O)N[C@H](CCC(N)=O)C(=O)N[C@H](CC(C)C)C(=O)N[C@H](C)C(=O)N[C@H](CCCNC(=N)N)C(=O)N[C@H](CC(C)C)C(=O)N[C@H](C)C(=O)N[C@H](CCC(N)=O)C(=O)N[C@H](CC(C)C)C(=O)N[C@H](C)C(=O)N[C@H](CCCCN)C(=O)N[C@H](CC(C)C)C(=O)N[C@@H](C(=O)N1CCC[C@@H]1C(=O)N[C@@H](C(=O)O)C(C)C)[C@H](C)O)C(C)C` [BCL-138] (Octanoyl-[dL][dV][dR][dQ][dL][dA][dR][dL][dA][dQ][dL][dA][dK][dL][dT][dP][dV]-OH; C-terminus assumed), the cytotoxic activity entry is on record as “Lack of cytotoxic activity” and the EC50 was above 80000 nM.

On to `CC(C)C[C@@H](NC(=O)[C@@H](Cc1c[nH]c2ccccc12)NC(=O)[C@H](N)Cc1c[nH]c2ccccc12)C(=O)N[C@H](C)C(=O)N[C@H](CCCNC(=N)N)C(=O)N[C@H](CCC(N)=O)C(=O)N[C@H](CC(C)C)C(=O)N[C@H](C)C(=O)N[C@H](CCCNC(=N)N)C(=O)N[C@H](CC(C)C)C(=O)N[C@H](CCCNC(=N)N)C(=O)N[C@H](CCC(N)=O)C(=O)N[C@H](CC(C)C)C(=O)N[C@H](C)C(=O)N[C@H](CCCCN)C(=O)N[C@H](CC(C)C)C(=O)N[C@@H](C(=O)N1CCC[C@@H]1C(=O)N[C@@H](C(=O)O)C(C)C)[C@H](C)O` [BCL-80] (H-[dW][dW][dL][dA][dR][dQ][dL][dA][dR][dL][dR][dQ][dL][dA][dK][dL][dT][dP][dV]-OH; N-terminus and C-terminus assumed), for which the EC50 is below 2000 nM.

Turning to `CC(C)C[C@@H](NC(=O)[C@@H](CCCNC(=N)N)NC(=O)[C@@H](C)NC(=O)[C@@H](CC(C)C)NC(=O)[C@@H](CCC(N)=O)NC(=O)[C@@H](CCCNC(=N)N)NC(=O)[C@@H](CC(C)C)NC(=O)[C@@H](CC(C)C)NC(=O)[C@@H](Cc1c[nH]c2ccccc12)NC(=O)[C@H](N)Cc1c[nH]c2ccccc12)C(=O)N[C@H](C)C(=O)N[C@H](CCC(N)=O)C(=O)N[C@H](CC(C)C)C(=O)N[C@H](C)C(=O)N[C@H](CCCCN)C(=O)N[C@H](CC(C)C)C(=O)N[C@@H](C(=O)N1CCC[C@@H]1C(=O)N[C@@H](C(=O)O)C(C)C)[C@H](C)O` [BCL-128] (H-[dW][dW][dL][dL][dR][dQ][dL][dA][dR][dL][dA][dQ][dL][dA][dK][dL][dT][dP][dV]-OH; N-terminus and C-terminus assumed), the EC50 is below 2000 nM.

For the molecule `CC(C)C[C@@H](NC(=O)[C@@H](Cc1c[nH]c2ccccc12)NC(=O)[C@H](N)Cc1ccccc1)C(=O)N[C@H](C)C(=O)N[C@H](CCCNC(=N)N)C(=O)N[C@H](CCC(N)=O)C(=O)N[C@H](CC(C)C)C(=O)N[C@H](C)C(=O)N[C@H](CCCNC(=N)N)C(=O)N[C@H](CC(C)C)C(=O)N[C@H](C)C(=O)N[C@H](CCC(N)=O)C(=O)N[C@H](CC(C)C)C(=O)N[C@H](C)C(=O)N[C@H](CCCCN)C(=O)N[C@H](CC(C)C)C(=O)N[C@@H](C(=O)N1CCC[C@@H]1C(=O)N[C@@H](C(=O)O)C(C)C)[C@H](C)O` [BCL-79] (H-[dF][dW][dL][dA][dR][dQ][dL][dA][dR][dL][dA][dQ][dL][dA][dK][dL][dT][dP][dV]-OH; N-terminus and C-terminus assumed), the EC50 is below 2000 nM.

`CC(C)C[C@@H](NC(=O)[C@@H](CCCNC(=N)N)NC(=O)[C@@H](C)NC(=O)[C@@H](CC(C)C)NC(=O)[C@@H](CCC(N)=O)NC(=O)[C@@H](CCCNC(=N)N)NC(=O)[C@H](NC(=O)[C@@H](CC(C)C)NC(=O)[C@@H](Cc1c[nH]c2ccccc12)NC(=O)[C@H](Cc1c[nH]c2ccccc12)NC(=O)CNC(=O)[C@@H](CCCNC(=N)N)NC(=O)CNC(=O)[C@@H](CC(=O)O)NC(=O)[C@@H](CO)NC(=O)[C@H]1CCCN1)C(C)C)C(=O)N[C@H](C)C(=O)N[C@H](CCC(N)=O)C(=O)N[C@H](CC(C)C)C(=O)N[C@H](C)C(=O)N[C@H](CCCCN)C(=O)N[C@H](CC(C)C)C(=O)N[C@@H](C(=O)N1CCC[C@@H]1C(=O)N[C@@H](C(=O)O)C(C)C)[C@H](C)O` [BCL-139] (H-[dP][dS][dD]G[dR]GW[dW][dL][dV][dR][dQ][dL][dA][dR][dL][dA][dQ][dL][dA][dK][dL][dT][dP][dV]-OH; N-terminus and C-terminus assumed) had an EC50 below 2000 nM.
